Data: US9802985B2, “Pharmaceutical composition for treatment of the pulmonary form of altitude sickness caused by lack of oxygen and reduced air pressure” (APEPTICO FORSCHUNG UND E[…], priority 2012, dated 2017)
Entries after “also recorded” stand apart in the source; their conditions may differ. No end group written: not given here.

How the values were obtained:
[1] = target: T1, amiloride-sensitive epithelial sodium ion channel (ENaC) (Homo sapiens, UniProt P37088+P51168+P51170); experiment: whole cell patch clamp test with A549 cells (Example 3); type: cell-based; conditions: for effect on the Na+ flow / ENaC (in words) / effect on the Na+ flow (in words): whole cell patch clamp; for effect on the Na+ flow / ENaC (in words): 300 nM in bath solution, n=3
T1 construct: the human alveolar epithelial cell line A549 was used; endogenous in cells; host or cells: A549 (human alveolar epithelial cell line)
Description: According to patent application EP 2 009 023 A1, the so-called transepithelial electrical resistance (TEER) test was used for the screening of anti-lung oedema active ingredient candidates. The “TEER test” is not an established test for the prediction of fluid clearance in lung oedemas (this test can not be found in the relevant scientific literature and also has no relevance with regard to the cells being used (Calu-3 cells) in a model for gas exchange in the human lung). In the present example—in addition to the peptide according to the invention—the peptides […], […] and (cyclized) […] were investigated by means of a whole cell patch clamp assay, an established methodology for the measurement of ion movement over the cell membranes and especially for the measuring of the sodium transport over the cell membrane of alveolar epithelial cells (Eaton et al., Fed. Proc. 45 (1986), 2707; Hamill et al., Pflugers Arch. 391 (1981) 85-100. Here it was to be tested whether or not the peptides can activate the amiloride-sensitive epithelial sodium flow in lung cells.
The whole cell patch clamp test using A549 cells took place as described in Hazemi et al. (J. Med. Chem. 53 (2010), 8021-8029). […] In cases where an increase of the flow after addition of a given peptide was observed, an amiloride solution (to […] final concentration) was added to the bath solution—after the flow reached a stationary state —, in order to differentiate the amiloride-sensitive from the amiloride-insensitive flow. The amiloride-sensitive flow was then calculated by subtracting the flow value after addition of amiloride (amiloride-insensitive) from the flow value of the stationary state before the addition of amiloride. For each peptide, three experiments were carried out in different A549 cells (n=3).

[2] = system: pulmonary form of altitude sickness in rats; experiment: experimental rat model of the pulmonary form of altitude sickness (physical activity under reduced oxygen and air pressure); type: in vivo, rat (Sprague Dawley)
Description: Physical exertion under conditions of reduced oxygen and air pressure, such as occur at high altitudes, are the 2 main factors which lead to the development of the pulmonary form of altitude sickness. Therefore, the selected rat model, in which the rats carried out physical activity under conditions of reduced oxygen and reduced air pressure, simulates a physically strenuous ascent to high altitudes. This takes place without carrying out a prior acclimatization. This corresponds to the scenario such as is to be found in the case of mountaineers who suffer from the pulmonary form of altitude sickness at high altitudes. In the model which was used, the rats develop the typical symptoms for the pulmonary form of altitude sickness, as is to be read in the “intensity of the pulmonary form of altitude sickness”, the increased protein concentration in the lung fluid and the histological appearance of the lung tissue. It is further to be noted that the lung damage in this model is not caused by administration of endotoxins, microbes or other agents which are damaging to the lung. […] Also, no specific strain of rat was used for this experiment. Therefore, this rat model is well suited to investigate a medicament for the treatment of the pulmonary form of altitude sickness.
Laboratory rats (Sprague Dawley rats) carried out physical activity through external stimulation for 48 hours under conditions of reduced oxygen and air pressure. Here, the air pressure was reduced to a value below 430 Torr, so that a height of over 4500 m was simulated. A prior acclimatization of the rats to the height of over 4500 m was not carried out. During this time, the rats were able to undertake a 15-20 minute pause every 4 hours in order to take in water and food. […] The lungs were then removed and the intensity of the pulmonary form of altitude sickness was determined (FIG. 1), the protein content in the lung fluid was determined (FIG. 2) and the histological appearance of the lung tissue was determined (FIG. 3).

[3] = system: interleukin-6 (IL-6) secretion in human full blood; experiment: ex vivo release of interleukin-6 from fresh human full blood cultures (ELISA); type: cell-based; conditions: for Concentration of IL-6: human full blood, 24 hours, n=5
Description: In this study, fresh full blood was used; this is a recognized prediction model for the assessment of the inflammatory reaction in vivo.
The aim of this study was to determine the pro-inflammatory signal capacity of the peptide SEQ ID NO: 1.
Full blood (FB) cultures were carried out by pipetting 1 ml FB in depressions of 24-well plates. In each experiment, unstimulated and stimulated control cultures were included.
If possible, the substances and stimulants to be examined were always used in the same volume in each well in a given experiment, which is not greater than 10% of the total volume in a well. Unstimulated controls took place with PBS. Volume adjustment and dilutions for different treatments were likewise carried out with PBS.
The content of each well was mixed and the plates were incubated at 37° C. and 5% CO2 for 24 hours. After incubation, the content of each well was transferred into a fresh 1.5 ml microtube and centrifuged at 8000 to 9000×g for 15 minutes. The supernatant of each sample was divided individually to two 1.5 ml reaction vessels and stored at −20° C. until use.
Interleukin-6 was quantified by means of a specific ELISA (Human IL-6 ELISA-Set, BD Biosciences, Cat. No. 555220) using an anti-human-IL-6 antibody as capture antibody, a biotinylated anti-human IL-6 detection antibody, avidin horseradish peroxidise conjugate as enzyme reagent and recombinant IL-6 as standard. Absorption measurement at 450 nm was carried out with the Packard Fusion reader.
The results of each plate were stored and evaluated with the fusion data analysis software. […]

[4] = target: T2, amiloride-sensitive sodium ion channel (ENaC) (Homo sapiens, UniProt P37088+P51168+P51170); experiment: whole cell patch clamp on A549 cells, amiloride-sensitive sodium ion flow, EC50 (Example 4); type: cell-based
T2 construct: Macroscopic sodium ion flows were derived from human lung epithelial cells A549; endogenous in cells; host or cells: A549 (human lung epithelial cells)
Description: The activity of the individual peptides is indicated as EC50 (in nM).

[5] = intratracheal 100, 300 and 600 μg/rat (especially 300 μg), 4 hours after administration

T1 sequence (P51168 whole entry): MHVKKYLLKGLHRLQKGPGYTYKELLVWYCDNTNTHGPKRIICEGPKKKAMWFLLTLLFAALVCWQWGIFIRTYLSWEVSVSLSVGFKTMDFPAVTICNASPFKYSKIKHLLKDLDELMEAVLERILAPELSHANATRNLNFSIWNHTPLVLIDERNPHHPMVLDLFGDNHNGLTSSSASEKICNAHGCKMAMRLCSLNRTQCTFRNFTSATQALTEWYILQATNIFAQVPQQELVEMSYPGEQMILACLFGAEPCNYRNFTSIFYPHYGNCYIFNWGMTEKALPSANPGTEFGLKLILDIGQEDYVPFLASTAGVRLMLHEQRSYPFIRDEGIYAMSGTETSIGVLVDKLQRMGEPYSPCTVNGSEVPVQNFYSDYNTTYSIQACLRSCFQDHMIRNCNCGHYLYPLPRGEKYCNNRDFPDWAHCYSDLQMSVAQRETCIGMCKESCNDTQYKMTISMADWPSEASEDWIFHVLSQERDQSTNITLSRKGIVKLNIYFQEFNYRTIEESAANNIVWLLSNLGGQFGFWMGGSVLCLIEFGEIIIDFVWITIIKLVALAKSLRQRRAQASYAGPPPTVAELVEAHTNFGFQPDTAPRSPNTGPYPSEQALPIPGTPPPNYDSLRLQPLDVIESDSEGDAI
T1 sequence (P37088 whole entry): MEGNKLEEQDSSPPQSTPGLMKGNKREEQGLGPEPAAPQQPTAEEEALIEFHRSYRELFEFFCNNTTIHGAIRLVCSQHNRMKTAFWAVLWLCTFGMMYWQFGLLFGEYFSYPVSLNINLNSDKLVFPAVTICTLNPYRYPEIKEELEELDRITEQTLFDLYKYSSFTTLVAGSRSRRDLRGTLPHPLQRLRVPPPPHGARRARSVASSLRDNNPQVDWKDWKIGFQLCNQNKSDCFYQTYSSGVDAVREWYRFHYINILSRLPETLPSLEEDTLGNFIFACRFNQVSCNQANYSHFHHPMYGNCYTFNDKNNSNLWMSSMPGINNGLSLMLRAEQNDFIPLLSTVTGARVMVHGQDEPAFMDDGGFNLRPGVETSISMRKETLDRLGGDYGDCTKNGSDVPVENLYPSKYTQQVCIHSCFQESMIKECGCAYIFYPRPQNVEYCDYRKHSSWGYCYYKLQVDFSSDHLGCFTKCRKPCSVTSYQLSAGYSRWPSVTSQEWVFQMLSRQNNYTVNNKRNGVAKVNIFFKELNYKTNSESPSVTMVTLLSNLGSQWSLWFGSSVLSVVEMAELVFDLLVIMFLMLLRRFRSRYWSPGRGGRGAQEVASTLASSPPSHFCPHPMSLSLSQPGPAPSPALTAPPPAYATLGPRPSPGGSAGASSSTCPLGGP
T1 sequence (P51170 whole entry): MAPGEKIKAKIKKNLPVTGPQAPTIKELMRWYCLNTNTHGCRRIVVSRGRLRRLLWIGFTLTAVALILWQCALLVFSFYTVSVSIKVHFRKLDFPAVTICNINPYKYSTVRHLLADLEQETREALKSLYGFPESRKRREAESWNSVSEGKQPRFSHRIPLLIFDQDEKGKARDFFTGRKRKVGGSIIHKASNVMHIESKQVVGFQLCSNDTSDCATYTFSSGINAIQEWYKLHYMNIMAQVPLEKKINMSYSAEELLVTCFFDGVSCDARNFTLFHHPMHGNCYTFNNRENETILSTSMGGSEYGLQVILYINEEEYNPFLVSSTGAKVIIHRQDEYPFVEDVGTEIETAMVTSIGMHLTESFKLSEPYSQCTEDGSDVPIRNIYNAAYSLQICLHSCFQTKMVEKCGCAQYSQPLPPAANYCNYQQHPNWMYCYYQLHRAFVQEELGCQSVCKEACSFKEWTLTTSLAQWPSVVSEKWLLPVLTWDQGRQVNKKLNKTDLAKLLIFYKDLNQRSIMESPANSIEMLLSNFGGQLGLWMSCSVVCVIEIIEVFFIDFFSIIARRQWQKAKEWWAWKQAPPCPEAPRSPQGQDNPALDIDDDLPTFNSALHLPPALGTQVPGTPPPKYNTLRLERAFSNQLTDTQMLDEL
T2 sequence (P37088 whole entry): as the sequence (P37088 whole entry) above
T2 sequence (P51168 whole entry): as the sequence (P51168 whole entry) above
T2 sequence (P51170 whole entry): as the sequence (P51170 whole entry) above

## CGTKPIELGPDEPKAVC (not fully specified (bridges); also: cyclic)
[1]
  effect on the Na+ flow / ENaC (in words): no activating effect; also recorded: no effect on the flow; also recorded: none of the other three peptides had an influence on the flow

## N=C(N)NC(=O)c1nc(Cl)c(N)nc1N [amiloride]
[1]; after AP301 240 nM, amiloride 100 mM in bath solution
  Na+ flow after subsequent addition of amiloride: 36 pA

## C[C@@H]1NC(=O)CNC(=O)[C@H](CCC(=O)O)NC(=O)[C@@H]2CCCN2C(=O)[C@H]([C@@H](C)O)NC(=O)[C@H](CCC(=O)O)NC(=O)[C@H](CCCNC(=N)N)NC(=O)[C@H](CCC(N)=O)NC(=O)CNC(=O)[C@@H](N)CSSC[C@@H](C(=O)O)NC(=O)[C@H](Cc2ccc(O)cc2)NC(=O)[C@H](Cc2c[nH]c3ccccc23)NC(=O)[C@@H]2CCCN2C(=O)[C@H](CCCCN)NC(=O)[C@H](C)NC(=O)[C@H](CCC(=O)O)NC1=O [SEQ ID NO: 1]
[2]; 4 hours after intratracheal administration
  histological appearance of lung tissue: comparable with healthy lung tissue of the control rats
[2]; [5]
  intensity of the pulmonary form of altitude sickness: led to reduction of the intensity of the pulmonary form of altitude sickness
  protein concentration in the lung fluid: led to reduction of the protein concentration in the lung fluid
[3]; human full blood cultures of five healthy donors, all tested concentrations (10 μg/ml to 1 ng/ml)
  induction of IL-6 secretion (in words): did not induce any detectable amount of IL-6 secretion; also recorded: induced no detectable level of IL-6
[3]; human full blood ex vivo model
  TNF receptor binding activity (concluded from absent IL-6 release): does not have TNF receptor binding activity
[3]
  Concentration of IL-6: less than 0.5 pg/ml
[3]; test concentration 1 ng/ml
  Concentration of IL-6: less than 0.5 pg/ml
[3]; test concentration 3 ng/ml
  Concentration of IL-6: less than 0.5 pg/ml
[3]; test concentration 1 mg/ml
  Concentration of IL-6: less than 0.5 pg/ml
[1]; 240 nM, increased from 50 pA, flow minus amiloride-insensitive flow
  amiloride-sensitive Na+ flow after addition of the peptide: 1037 pA
[1]; 240 nM in bath solution
  effect on the Na+ flow (in words): induced an increase of the sodium flow over that of the control value
[1]; 240 nM in bath solution, listed as AP301
  effect on the Na+ flow (in words): immediate intensifying effect
[1]; whole cell, clamped at -100 mV, 240 nM in bath solution, control value 86 pA±5 pA
  active Na+ flow after addition of the peptide (maximum): 1073±15 pA

## QRETPEGAEAKPWY
[1]
  effect on the Na+ flow / ENaC (in words): no activating effect; also recorded: no effect on the flow; also recorded: none of the other three peptides had an influence on the flow

## TKPIELGPDEPKAV
[1]
  effect on the Na+ flow / ENaC (in words): no activating effect; also recorded: no effect on the flow; also recorded: none of the other three peptides had an influence on the flow

## CGQREAPAGAAAKPWYC [SEQ ID NO: 19]
[4]; A549 cells, whole cell patch clamp, concentration at 50% of maximum increase of flow
  EC50 (nM), cellular amiloride-sensitive sodium ion flow: No activity
[4]; A549 lung cells
  activity on the amiloride-sensitive sodium ion channel (in words): not active
